Results on 20 molecules are retold here after US20230340011A1 (Asteroid Therapeutics, priority 2022, published 2023).

pEC50, pIC50: −log10 of the molar value.

The target of one assay is LXRβ (Homo sapiens (Human), UniProt P55055). The assay can be described thus: In vitro assay LXRβ: PathHunter NHR CHO cells, LXRβ / Steroid Receptor Co-activator Peptide enzyme fragment complementation. It is filed as cell-based. As to conditions: PathHunter NHR CHO cells, full-length human LXRβ and SRCP, chemiluminescent signal; read-out: LXRβ PPI. In a few lines:
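Co-activator recruitment measured by chemiluminescence after signal generation. The CHO line carries full-length human LXRβ tagged with ProLink and an SRCP–enzyme acceptor fusion in the nucleus; cells sat overnight at 37° C before testing, in charcoal-dextran filtered serum medium with 1% final vehicle.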

The target of the next assay is SREBP-2 (Homo sapiens (Human), UniProt Q12772). In words: In vitro assay SREBP-2: PathHunter U2OS SREBP-2 Nuclear Translocation Cell Line, U18666A-stimulated. In kind it is cell-based. To be noted: PathHunter U2OS SREBP-2 nuclear translocation cells, U18666A 10 μM, overnight (16 hours).

Sequence of LXRβ (P55055 whole entry, the tested form may be a part): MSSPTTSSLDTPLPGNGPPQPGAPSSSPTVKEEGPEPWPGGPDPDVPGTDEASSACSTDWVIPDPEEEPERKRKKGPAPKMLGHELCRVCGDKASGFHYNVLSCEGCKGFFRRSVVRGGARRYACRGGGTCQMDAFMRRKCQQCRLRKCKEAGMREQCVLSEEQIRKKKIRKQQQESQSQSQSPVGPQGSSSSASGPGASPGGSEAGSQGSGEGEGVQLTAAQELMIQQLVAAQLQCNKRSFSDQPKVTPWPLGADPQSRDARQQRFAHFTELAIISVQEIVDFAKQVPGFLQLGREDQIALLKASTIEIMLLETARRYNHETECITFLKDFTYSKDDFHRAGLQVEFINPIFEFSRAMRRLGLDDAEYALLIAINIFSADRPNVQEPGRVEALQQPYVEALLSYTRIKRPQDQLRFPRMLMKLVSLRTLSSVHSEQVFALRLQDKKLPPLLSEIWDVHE

For `C[C@H](CCC(=O)N1CC[C@@H](C(O)(C(F)(F)F)C(F)(F)F)C1)[C@H]1CC[C@H]2[C@@H]3CC=C4C[C@@H](O)CC[C@]4(C)[C@H]3CC[C@]12C` [Example 98, (R)-1-((R)-3-(1,1,1,3,3,3-hexafluoro-2-hydroxypropan-2-yl)pyrrolidin-1-yl)-4-((3S,8S,9S,10R,13R,14S,17R)-3-hydroxy-10,13-dimethyl-2,3,4,7,8,9,10,11,12,13,14,15,16,17-tetradecahydro-1H-cyclopenta[a]phenanthren-17-yl)pentan-1-one], the pEC50 on LXRβ is less than 5.00. The negative logarithm of the IC50 (pIC50) against SREBP-2 was more than 6.60.
The like results for `C[C@H](CCC(=O)N1CCN(C(=O)N(C)CC2CC2)C[C@@H]1C)[C@H]1CC[C@H]2[C@@H]3CC=C4C[C@@H](O)CC[C@]4(C)[C@H]3CC[C@]12C` [Example 637, (S)—N-(cyclopropylmethyl)-4-((R)-4-((3S,8S,9S,10R,13R,14S,17R)-3-hydroxy-10,13-dimethyl-2,3,4,7,8,9,10,11,12,13,14,15,16,17-tetradecahydro-1H-cyclopenta[a]phenanthren-17-yl)pentanoyl)-N,3-dimethylpiperazine-1-carboxamide] were, in that order, less than 5.00 and more than 6.60.
The like results for `C[C@H](CCc1cncnc1)[C@H]1CC[C@H]2[C@@H]3CC=C4C[C@@H](O)CC[C@]4(C)[C@H]3CC[C@]12C` [Example 171, (3S,8S,9S,10R,13R,14S,17R)-10,13-dimethyl-17-((R)-4-(pyrimidin-5-yl)butan-2-yl)-2,3,4,7,8,9,10,11,12,13,14,15,16,17-tetradecahydro-1H-cyclopenta[a]phenanthren-3-ol] were, in that order, less than 5.00 and more than 6.60.
The like results for `C[C@H](CCC(=O)N1CCN(C(=O)N(C)C)[C@@H](C)C1)[C@H]1CC[C@H]2[C@@H]3CC=C4C[C@@H](O)CC[C@]4(C)[C@H]3CC[C@]12C` [Example 573, (2S)-4-[(4R)-4-[(1R,3aS,3bS,7S,9aR,9bS,11aR)-7-hydroxy-9a,11a-dimethyl-1H,2H,3H,3aH,3bH,4H,6H,7H,8H,9H,9aH,9bH,10H,11H,11aH-cyclopenta[a]phenanthren-1-yl]pentanoyl]-N,N,2-trimethylpiperazine-1-carboxamide] were, in that order, less than 5.00 and more than 6.60.
Turning to `COc1nnccc1N1CCN(C(=O)CC[C@@H](C)[C@H]2CC[C@H]3[C@@H]4CC=C5C[C@@H](O)CC[C@]5(C)[C@H]4CC[C@]23C)CC1` [Example 629, (R)-4-((3S,8S,9S,10R,13R,14S,17R)-3-hydroxy-10,13-dimethyl-2,3,4,7,8,9,10,11,12,13,14,15,16,17-tetradecahydro-1H-cyclopenta[a]phenanthren-17-yl)-1-(4-(3-methoxypyridazin-4-yl)piperazin-1-yl)pentan-1-one], on LXRβ, the pEC50 was less than 5.00. Further, the negative-log IC50 (pIC50) on SREBP-2 is more than 6.60.
The like results for `C[C@H](CCc1ncccc1OCCO)[C@H]1CC[C@H]2[C@@H]3CC=C4C[C@@H](O)CC[C@]4(C)[C@H]3CC[C@]12C` [Example 246] were, in that order, 6.00 to 6.60 and more than 6.60.
As for `C[C@H](CCc1nccs1)[C@H]1CC[C@H]2[C@@H]3CC=C4C[C@@H](O)CC[C@]4(C)[C@H]3CC[C@]12C` [Example 172, (1R,3aS,3bS,7S,9aR,9bS,11aR)-9a,11a-dimethyl-1-[(2R)-4-(1,3-thiazol-2-yl)butan-2-yl]-1H,2H,3H,3aH,3bH,4H,6H,7H,8H,9H,9aH,9bH,10H,11H,11aH-cyclopenta[a]phenanthren-7-ol], at LXRβ, the pEC50 was 5.00 to 6.00. The pIC50 against SREBP-2 was 6.00 to 6.60.
`C[C@H](CCC(=O)N1CCC2(CCOC2)CC1)[C@H]1CC[C@H]2[C@@H]3CC=C4C[C@@H](O)CC[C@]4(C)[C@H]3CC[C@]12C` [Example 89, (R)-4-((3S,8S,9S,10R,13R,14S,17R)-3-hydroxy-10,13-dimethyl-2,3,4,7,8,9,10,11,12,13,14,15,16,17-tetradecahydro-1H-cyclopenta[a]phenanthren-17-yl)-1-(2-oxa-δ-azaspiro[4.5]decan-δ-yl)pentan-1-one]: at LXRβ, the pEC50 is less than 5.00. The pIC50 against SREBP-2 was more than 6.60.
The like results for `CCC1(O)CCN(C(=O)OC[C@@H](C)[C@H]2CC[C@H]3[C@@H]4CC=C5C[C@@H](O)CC[C@]5(C)[C@H]4CC[C@]23C)CC1` [Example 348, (S)-2-((3S,8S,9S,10R,13S,14S,17R)-3-hydroxy-10,13-dimethyl-2,3,4,7,8,9,10,11,12,13,14,15,16,17-tetradecahydro-1H-cyclopenta [a]phenanthren-17-yl)propyl 4-ethyl-4-hydroxypiperidine-1-carboxylate] were, in that order, less than 5.00 and more than 6.60.
As for `CC(C)C(=O)N1CCN(C(=O)CC[C@@H](C)[C@H]2CC[C@H]3[C@@H]4CC=C5C[C@@H](O)CC[C@]5(C)[C@H]4CC[C@]23C)CC1` [Example 315, (R)-4-((3S,8S,9S,10R,13R,14S,17R)-3-hydroxy-10,13-dimethyl-2,3,4,7,8,9,10,11,12,13,14,15,16,17-tetradecahydro-1H-cyclopenta[a]phenanthren-17-yl)-1-(4-isobutyrylpiperazin-1-yl)pentan-1-one], the pEC50 on LXRβ was less than 5.00.
Same read-out and setting: under `C[C@H](OC(=O)C(N)=O)[C@H]1CC[C@H]2[C@@H]3CC=C4C[C@@H](O)CC[C@]4(C)[C@H]3CC[C@]12C` [Example 144, (S)-1-((3S,8S,9S,10R,13S,14S,17S)-3-hydroxy-10,13-dimethyl-2,3,4,7,8,9,10,11,12,13,14,15,16,17-tetradecahydro-1H-cyclopenta[a]phenanthren-17-yl)ethyl 2-amino-2-oxoacetate] stands less than 5.00; under `C[C@H](CCC(=O)N1CCC(CNS(=O)(=O)C(F)(F)F)CC1)[C@H]1CC[C@H]2[C@@H]3CC=C4C[C@@H](O)CC[C@]4(C)[C@H]3CC[C@]12C` [Example 231, 1,1,1-trifluoro-N-((1-((R)-4-((3S,8S,9S,10R,13R,14S,17R)-3-hydroxy-10,13-dimethyl-2,3,4,7,8,9,10,11,12,13,14,15,16,17-tetradecahydro-1H-cyclopenta[a]phenanthren-17-yl)pentanoyl)piperidin-4-yl)methyl)methanesulfonamide], less than 5.00; under `C[C@H](CCC(=O)N1CCN(c2ccnn2C)CC1)[C@H]1CC[C@H]2[C@@H]3CC=C4C[C@@H](O)CC[C@]4(C)[C@H]3CC[C@]12C` [Example 226, (R)-4-((3S,8S,9S,10R,13R,14S,17R)-3-hydroxy-10,13-dimethyl-2,3,4,7,8,9,10,11,12,13,14,15,16,17-tetradecahydro-1H-cyclopenta[a]phenanthren-17-yl)-1-(4-(1-methyl-1H-pyrazol-5-yl)piperazin-1-yl)pentan-1-one], less than 5.00.
Still for that read-out and setting: the value for `C[C@@H](NC(=O)C(=O)N(C)C)[C@H]1CC[C@H]2[C@@H]3CC=C4C[C@@H](O)CC[C@]4(C)[C@H]3CC[C@]12C` (single isomer, unassigned) [Example 119] was less than 5.00; that for `C[C@H](CCC(=O)N1CCN(c2ncccn2)CC1)[C@H]1CC[C@H]2[C@@H]3CC=C4C[C@@H](O)CC[C@]4(C)[C@H]3CC[C@]12C` [Example 305, (R)-4-((3S,8S,9S,10R,13R,14S,17R)-3-hydroxy-10,13-dimethyl-2,3,4,7,8,9,10,11,12,13,14,15,16,17-tetradecahydro-1H-cyclopenta[a]phenanthren-17-yl)-1-(4-(pyrimidin-2-yl)piperazin-1-yl)pentan-1-one] was less than 5.00.
Same read-out and setting: under `C[C@H](CCC(=O)N1CC(C)(C)[C@@H]2COC[C@@H]21)[C@H]1CC[C@H]2[C@@H]3CC=C4C[C@@H](O)CC[C@]4(C)[C@H]3CC[C@]12C` [Example 138, (4R)-1-(3,3-dimethylhexahydro-1H-furo[3,4-b]pyrrol-1-yl)-4-((3S,8S,9S,10R,13R,14S,17R)-3-hydroxy-10,13-dimethyl-2,3,4,7,8,9,10,11,12,13,14,15,16,17-tetradecahydro-1H-cyclopenta[a]phenanthren-17-yl)pentan-1-one] stands 6.00 to 6.60; under `CCN(OC)C(=O)CC[C@@H](C)[C@H]1CC[C@H]2[C@@H]3CC=C4C[C@@H](O)CC[C@]4(C)[C@H]3CC[C@]12C` [Example 11, (R)—N-ethyl-4-((3S,8S,9S,10R,13R,14S,17R)-3-hydroxy-10,13-dimethyl-2,3,4,7,8,9,10,11,12,13,14,15,16,17-tetradecahydro-1H-cyclopenta[a]phenanthren-17-yl)-N-methoxypentanamide], 6.00 to 6.60.
Turning to `CNc1nccc(N2CCN(C(=O)CC[C@@H](C)[C@H]3CC[C@H]4[C@@H]5CC=C6C[C@@H](O)CC[C@]6(C)[C@H]5CC[C@]34C)CC2)n1` [Example 561, (R)-4-((3S,8S,9S,10R,13R,14S,17R)-3-hydroxy-10,13-dimethyl-2,3,4,7,8,9,10,11,12,13,14,15,16,17-tetradecahydro-1H-cyclopenta[a]phenanthren-17-yl)-1-(4-(2-(methylamino)pyrimidin-4-yl)piperazin-1-yl)pentan-1-one], the pEC50 at LXRβ was less than 5.00.
Still for that read-out and setting: the value for `CNS(=O)(=O)C1CCN(C(=O)CC[C@@H](C)[C@H]2CC[C@H]3[C@@H]4CC=C5C[C@@H](O)CC[C@]5(C)[C@H]4CC[C@]23C)CC1` [Example 291, 1-[(4R)-4-[(1R,3aS,3bS,7S,9aR,9bS,11aR)-7-hydroxy-9a,11a-dimethyl-1H,2H,3H,3aH,3bH,4H,6H,7H,8H,9H,9aH,9bH,10H,11H,11aH-cyclopenta[a]phenanthren-1-yl]pentanoyl]-N-methylpiperidine-4-sulfonamide] was less than 5.00; that for `CCCCN(OC)C(=O)CC[C@@H](C)[C@H]1CC[C@H]2[C@@H]3CC=C4C[C@@H](O)CC[C@]4(C)[C@H]3CC[C@]12C` [Example 17, (R)—N-butyl-4-((3S,8S,9S,10R,13R,14S,17R)-3-hydroxy-10,13-dimethyl-2,3,4,7,8,9,10,11,12,13,14,15,16,17-tetradecahydro-1H-cyclopenta[a]phenanthren-17-yl)-N-methoxypentanamide] was 5.00 to 6.00.
